The IC50 is the concentration needed to halve the response being measured. A low value points to inhibition by little substance.

This experiment addresses T1, mGlyT-1b (Mus musculus, UniProt P28571).
T1 construct: host or cells: Flp-in-CHO
T1 sequence (P28571 1-651 isoform P28571-2): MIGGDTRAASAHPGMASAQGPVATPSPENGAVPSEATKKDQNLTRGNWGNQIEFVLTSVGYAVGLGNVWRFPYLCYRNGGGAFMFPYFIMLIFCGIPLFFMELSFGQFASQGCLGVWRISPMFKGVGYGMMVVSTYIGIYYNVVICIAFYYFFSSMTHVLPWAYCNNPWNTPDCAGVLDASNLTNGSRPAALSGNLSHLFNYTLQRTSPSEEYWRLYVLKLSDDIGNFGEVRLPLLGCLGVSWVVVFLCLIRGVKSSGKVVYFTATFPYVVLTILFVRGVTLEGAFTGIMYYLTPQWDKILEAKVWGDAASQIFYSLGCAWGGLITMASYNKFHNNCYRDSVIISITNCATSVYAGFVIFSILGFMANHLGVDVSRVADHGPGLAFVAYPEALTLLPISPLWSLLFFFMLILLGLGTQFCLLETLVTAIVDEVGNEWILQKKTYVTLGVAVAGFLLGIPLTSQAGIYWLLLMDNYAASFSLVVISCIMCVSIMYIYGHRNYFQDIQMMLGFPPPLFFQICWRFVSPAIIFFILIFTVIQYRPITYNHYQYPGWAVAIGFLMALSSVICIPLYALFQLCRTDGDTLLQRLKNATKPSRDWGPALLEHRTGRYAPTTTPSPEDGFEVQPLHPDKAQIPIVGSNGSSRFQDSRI
As to the kind of experiment: Glycine Uptake Inhibition Assay (mGlyT-1b). Format: cell-based. The procedure:
DMEM complete medium: Nutrient mixture F-12 (Gibco Life-technologies), fetal bovine serum (FBS) 5%, (Gibco life technologies), Penicillin/Streptomycin 1% (Gibco life technologies), Hygromycin 0.6 mg/ml (Gibco life technologies), Glutamine 1 mM Gibco life technologies)
Uptake buffer (UB): 150 mM NaCl, 10 mM Hepes-Tris, pH 7.4, 1 mM CaCl2, 2.5 mM KCl, 2.5 mM MgSO4, 10 mM (+) D-glucose.
Flp-in™-CHO (Invitrogen Cat n° R758-07) cells stably transfected with mGlyT1b cDNA.
Glycine Uptake Inhibition Assay (mGlyT-1b)
On day 1 mammalian cells, (Flp-in™-CHO), transfected with mGlyT-1b cDNA, were plated at the density of 40,000 cells/well in complete F-12 medium, without hygromycin in 96-well culture plates. On day 2, the medium was aspirated and the cells were washed twice with uptake buffer (UB). The cells were then incubated for 20 min at 22° C. with either (i) no potential competitor, (ii) 10 mM non-radioactive glycine, (iii) a concentration of a potential inhibitor. A range of concentrations of the potential inhibitor was used to generate data for calculating the concentration of inhibitor resulting in 50% of the effect (e.g. IC50, the concentration of the competitor inhibiting glycine uptake of 50%). A solution was then immediately added containing [^3H]-glycine 60 nM (11-16 Ci/mmol) and 25 μM non-radioactive glycine. The plates were incubated with gentle shaking and the reaction was stopped by aspiration of the mixture and washing (three times) with ice-cold UB. The cells were lysed with scintillation liquid, shaken 3 hours and the radioactivity in the cells was counted using a scintillation counter.
On to `O=C(CN(Cc1ccccc1Cl)C(=O)c1ccc(OC(F)(F)F)cc1)Nc1cccc(F)c1` [Example 60, N-(2-Chloro-benzyl)-N-[(3-fluoro-phenylcarbamoyl)-methyl]-4-trifluoromethoxy-benzamide], for which the midpoint of inhibition, the IC50, lay at 0.107 µM. As for `O=C(CN(Cc1ccccc1F)C(=O)c1ccc(N2CCOCC2)nc1)Nc1cccc(Cl)c1` [Example 119, N-[(3-Chloro-phenylcarbamoyl)-methyl]-N-(2-fluoro-benzyl)-6-morpholin-4-yl-nicotinamide], the figure is 0.355 µM.

As to `O=C(CN(Cc1cccc(F)c1F)C(=O)c1cc2ccccc2s1)Nc1ccc(F)c(Cl)c1` [Example 80, Benzo[b]thiophene-2-carboxylic acid [(3-chloro-4-fluoro-phenylcarbamoyl)-methyl]-(2,3-difluoro-benzyl)-amide], half-maximal inhibition (IC50) required 0.066 µM.

The compound `O=C(CN(C(=O)c1ccc(OC(F)(F)F)cc1)c1ccccc1)Nc1ccc(Cl)c(Cl)c1` [Example 114, N-[(3,4-Dichloro-phenylcarbamoyl)-methyl]-N-phenyl-4-trifluoromethoxy-benzamide] showed an IC50 of 0.091 µM. As for `COc1ccc(C(=O)N(CC(=O)Nc2cccc(Cl)c2)Cc2ccsc2)cc1` [Example 10, N-[(3-Chloro-phenylcarbamoyl)-methyl]-4-methoxy-N-thiophen-3-ylmethyl-benzamide], the figure is 0.285 µM; as for `COc1ccc(C(=O)N(CC(=O)Nc2ccc(Cl)c(Cl)c2)c2ccccc2F)cc1` [Example 21, N-[(3,4-Dichloro-phenylcarbamoyl)-methyl]-N-(2-fluoro-phenyl)-4-methoxy-benzamide], 0.315 µM; as for `O=C(CN(Cc1cccc(F)c1F)C(=O)c1ccc(Cl)cc1)Nc1ccc(F)c(Cl)c1` [Example 82, 4-Chloro-N-[(3-chloro-4-fluoro-phenylcarbamoyl)-methyl]-N-(2,3-difluoro-benzyl)-benzamide], 0.108 µM. For `O=C(CN(Cc1ccccc1Cl)C(=O)c1ccc(Cl)cc1)Nc1cccc(F)c1` [Example 59, 4-Chloro-N-(2-chloro-benzyl)-N-[(3-fluoro-phenylcarbamoyl)-methyl]-benzamide] the value was 0.166 µM; for `Cc1cccc(CN(CC(=O)Nc2cccc(Cl)c2)C(=O)c2ccc(Cl)cc2)c1` [Example 103, 4-Chloro-N-[(3-chloro-phenylcarbamoyl)-methyl]-N-(3-methyl-benzyl)-benzamide], 0.142 µM. For `O=C(CN(Cc1cc(F)ccc1F)C(=O)c1ccc(Cl)cc1)Nc1cccc(Cl)c1` [Example 6, 4-Chloro-N-[(3-chloro-phenylcarbamoyl)-methyl]-N-(2,5-difluoro-benzyl)-benzamide] the value was 0.165 µM; for `O=C(CN(Cc1cccc(F)c1)C(=O)c1ccc(Cl)cc1)Nc1cccc(Cl)c1` [Example 8, 4-Chloro-N-[(3-chloro-phenylcarbamoyl)-methyl]-N-(3-fluoro-benzyl)-benzamide], 0.128 µM; for `O=C(CN(Cc1ccccc1Cl)C(=O)c1ccc(Cl)cc1)Nc1ccc(F)c(Cl)c1` [Example 74, 4-Chloro-N-(2-chloro-benzyl)-N-[(3-chloro-4-fluoro-phenylcarbamoyl)-methyl]-benzamide], 0.142 µM. `O=C(CN(Cc1ccc(F)c(F)c1)C(=O)c1cc2ccccc2s1)Nc1cccc(F)c1` [Example 66, Benzo[b]thiophene-2-carboxylic acid (3,4-difluoro-benzyl)-[(3-fluoro-phenylcarbamoyl)-methyl]-amide] gave an IC50 of 0.167 µM. As for `N#Cc1ccc(C(=O)N(CC(=O)Nc2ccc(F)c(Cl)c2)Cc2ccccc2Cl)cc1` [Example 77, N-(2-Chloro-benzyl)-N-[(3-chloro-4-fluoro-phenylcarbamoyl)-methyl]-4-cyano-benzamide], the figure is 0.182 µM.
